Read-outs that look alike come from different tables or passages of the source.
Tests used:
SARS-CoV-2 nsp3-mac1 [1] = target: T1, SARS-CoV-2 nsp3-mac1 (Severe acute respiratory syndrome coronavirus 2, UniProt P0DTD1); assay: biochemical; design: SARS-CoV-2 nsp3 macrodomain TR-FRET single point, per cent inhibition, n=2
SARS-CoV-2 nsp3-mac1 [2] = target: T1, SARS-CoV-2 nsp3-mac1; assay: biochemical; type: biochemical; details: SARS-CoV-2 nsp3 macrodomain TR-FRET single point
[3] = read-out: perc_inhibition_mean, batch_name=ASAP-0000257-001
[4] = read-out: perc_inhibition_mean, batch_name=ASAP-0000390-001
[5] = read-out: perc_inhibition_mean, batch_name=ASAP-0000320-001
[6] = read-out: perc_inhibition_mean, batch_name=ASAP-0000471-001
[7] = read-out: perc_inhibition_mean, batch_name=ASAP-0000475-001
[8] = read-out: perc_inhibition_mean, batch_name=ASAP-0000361-001
[9] = read-out: perc_inhibition_mean, batch_name=ASAP-0000294-001
[10] = read-out: perc_inhibition_mean, batch_name=ASAP-0000470-001
[11] = read-out: perc_inhibition_mean, batch_name=ASAP-0000454-001
[12] = read-out: perc_inhibition_mean, batch_name=ASAP-0000423-001
[13] = read-out: perc_inhibition_mean, batch_name=ASAP-0000412-001
[14] = read-out: perc_inhibition_mean, batch_name=ASAP-0000460-001
[15] = read-out: perc_inhibition_mean, batch_name=ASAP-0000468-001

C(=C1CCCCC1)c1ncnc2[nH]ccc12 [ASAP-0000257]
inhibition at 50 µM (SARS-CoV-2 nsp3-mac1 [1]; [3]): -5.46% | inhibition at 100 µM (SARS-CoV-2 nsp3-mac1 [1]; [3]): 3.46% | perc_inhibition_mean (SARS-CoV-2 nsp3-mac1 [2]; concentration 50.0 uM, n=2): -5.46% | perc_inhibition_mean (SARS-CoV-2 nsp3-mac1 [2]; concentration 100.0 uM, n=2): 3.464%

Cc1nc(C(=O)N2CCC(c3ccn4ncc(C(=O)N5CCCCC5)c4c3)CC2)c(C)[nH]1 [ASAP-0000390]
inhibition at 49.75 µM (SARS-CoV-2 nsp3-mac1 [1]; [4]): 16.8% | inhibition at 99.5 µM (SARS-CoV-2 nsp3-mac1 [1]; [4]): 27.5% | perc_inhibition_mean (SARS-CoV-2 nsp3-mac1 [2]; concentration 49.75 uM): 16.798% | perc_inhibition_mean (SARS-CoV-2 nsp3-mac1 [2]; concentration 99.5 uM): 27.519%

CCn1cc(CNC(=O)c2ccc(NC(=O)Nc3ccccc3)cc2)cn1 [ASAP-0000320]
inhibition at 49.75 µM (SARS-CoV-2 nsp3-mac1 [1]; [5]): -1.76% | inhibition at 99.5 µM (SARS-CoV-2 nsp3-mac1 [1]; [5]): 3.8% | perc_inhibition_mean (SARS-CoV-2 nsp3-mac1 [2]; concentration 49.75 uM, n=2): -1.76% | perc_inhibition_mean (SARS-CoV-2 nsp3-mac1 [2]; concentration 99.5 uM, n=2): 3.797%

CC(C)[C@@H](Nc1ncnc2[nH]ccc12)c1nc2ccccc2[nH]1 [ASAP-0000471]
inhibition at 49.75 µM (SARS-CoV-2 nsp3-mac1 [1]; [6]): 37.3% | inhibition at 99.5 µM (SARS-CoV-2 nsp3-mac1 [1]; [6]): 52.5% | perc_inhibition_mean (SARS-CoV-2 nsp3-mac1 [2]; concentration 49.75 uM): 37.305% | perc_inhibition_mean (SARS-CoV-2 nsp3-mac1 [2]; concentration 99.5 uM): 52.508%

CC(C)[C@@H](CCN(C)C(=O)c1cc2c(s1)CC[C@H](C)C2)Nc1ncnc2[nH]ccc12 [ASAP-0000475]
inhibition at 49.75 µM (SARS-CoV-2 nsp3-mac1 [1]; [7]): -9.68% | inhibition at 99.5 µM (SARS-CoV-2 nsp3-mac1 [1]; [7]): -29.7% | perc_inhibition_mean (SARS-CoV-2 nsp3-mac1 [2]; concentration 49.75 uM): -9.684% | perc_inhibition_mean (SARS-CoV-2 nsp3-mac1 [2]; concentration 99.5 uM): -29.716%

c1cnc([C@@H]2CCN(c3ncnc4[nH]ccc34)C2)cn1 [ASAP-0000054]
inhibition at 50 µM (SARS-CoV-2 nsp3-mac1 [1]; read-out: perc_inhibition_mean, batch_name=ASAP-0000054-001): -1.7% | perc_inhibition_mean (SARS-CoV-2 nsp3-mac1 [2]; concentration 50.0 uM): -1.697%

COCc1nc(CNc2ncc3c(n2)COC3)cs1 [ASAP-0000098]
inhibition at 50 µM (SARS-CoV-2 nsp3-mac1 [1]; read-out: perc_inhibition_mean, batch_name=ASAP-0000098-001): -7.14% | perc_inhibition_mean (SARS-CoV-2 nsp3-mac1 [2]; concentration 50.0 uM): -7.137%

CCN(Cc1nnc(C)o1)C(=O)c1cnn2ccc(C3CCN(C(=O)c4ccccc4)CC3)cc12 [ASAP-0000361]
inhibition at 49.75 µM (SARS-CoV-2 nsp3-mac1 [1]; [8]): 10% | inhibition at 99.5 µM (SARS-CoV-2 nsp3-mac1 [1]; [8]): -5.31% | perc_inhibition_mean (SARS-CoV-2 nsp3-mac1 [2]; concentration 49.75 uM): 10.027% | perc_inhibition_mean (SARS-CoV-2 nsp3-mac1 [2]; concentration 99.5 uM): -5.306%

Nc1ncnc2c1ncn2Cc1cccc2ncnn12 [ASAP-0000294]
inhibition at 49.75 µM (SARS-CoV-2 nsp3-mac1 [1]; [9]): -0.553% | inhibition at 99.5 µM (SARS-CoV-2 nsp3-mac1 [1]; [9]): -3.16% | perc_inhibition_mean (SARS-CoV-2 nsp3-mac1 [2]; concentration 49.75 uM, n=2): -0.553% | perc_inhibition_mean (SARS-CoV-2 nsp3-mac1 [2]; concentration 99.5 uM, n=2): -3.161%

O[C@H]1C[C@](CNc2ncnc3[nH]ccc23)(c2ccccc2)C1 [ASAP-0000080]
inhibition at 50 µM (SARS-CoV-2 nsp3-mac1 [1]; read-out: perc_inhibition_mean, batch_name=ASAP-0000080-001): 11.4% | perc_inhibition_mean (SARS-CoV-2 nsp3-mac1 [2]; concentration 50.0 uM): 11.369%

C[C@@H](Nc1ncnc2[nH]ccc12)c1cnn(Cc2ccccc2)c1 [ASAP-0000470]
inhibition at 49.75 µM (SARS-CoV-2 nsp3-mac1 [1]; [10]): -4.11% | inhibition at 99.5 µM (SARS-CoV-2 nsp3-mac1 [1]; [10]): 3.18% | perc_inhibition_mean (SARS-CoV-2 nsp3-mac1 [2]; concentration 49.75 uM): -4.105% | perc_inhibition_mean (SARS-CoV-2 nsp3-mac1 [2]; concentration 99.5 uM): 3.18%

CC(C)[C@@H]1[C@H](O)CCN1c1ncnc2[nH]ccc12 [ASAP-0000454]
inhibition at 49.75 µM (SARS-CoV-2 nsp3-mac1 [1]; [11]): 17.7% | inhibition at 99.5 µM (SARS-CoV-2 nsp3-mac1 [1]; [11]): 32.2% | perc_inhibition_mean (SARS-CoV-2 nsp3-mac1 [2]; concentration 49.75 uM): 17.696% | perc_inhibition_mean (SARS-CoV-2 nsp3-mac1 [2]; concentration 99.5 uM): 32.152%

Cc1c[nH]nc1C(=O)N1CCC(c2ccn3ncc(C(=O)N4CCCCC4)c3c2)CC1 [ASAP-0000423]
inhibition at 49.75 µM (SARS-CoV-2 nsp3-mac1 [1]; [12]): 8.47% | inhibition at 99.5 µM (SARS-CoV-2 nsp3-mac1 [1]; [12]): 27.4% | perc_inhibition_mean (SARS-CoV-2 nsp3-mac1 [2]; concentration 49.75 uM): 8.474% | perc_inhibition_mean (SARS-CoV-2 nsp3-mac1 [2]; concentration 99.5 uM): 27.38%

CN(C[C@H]1CCCN1)C(=O)c1cnn2ccc(C3CCN(C(=O)c4ccccc4)CC3)cc12 [ASAP-0000412]
inhibition at 49.75 µM (SARS-CoV-2 nsp3-mac1 [1]; [13]): -7.47% | inhibition at 99.5 µM (SARS-CoV-2 nsp3-mac1 [1]; [13]): -6.59% | perc_inhibition_mean (SARS-CoV-2 nsp3-mac1 [2]; concentration 49.75 uM): -7.471% | perc_inhibition_mean (SARS-CoV-2 nsp3-mac1 [2]; concentration 99.5 uM): -6.586%

C[C@@H](NC(=O)c1ncnc2[nH]ccc12)c1ncc(C(=O)O)c(=O)[nH]1 [ASAP-0000460]
inhibition at 49.75 µM (SARS-CoV-2 nsp3-mac1 [1]; [14]): 4.87% | inhibition at 99.5 µM (SARS-CoV-2 nsp3-mac1 [1]; [14]): 10.7% | perc_inhibition_mean (SARS-CoV-2 nsp3-mac1 [2]; concentration 49.75 uM): 4.872% | perc_inhibition_mean (SARS-CoV-2 nsp3-mac1 [2]; concentration 99.5 uM): 10.734%

Cc1cccc([C@@H]2CCCN2c2ncnc3[nH]ccc23)n1 [ASAP-0000108]
inhibition at 50 µM (SARS-CoV-2 nsp3-mac1 [1]; read-out: perc_inhibition_mean, batch_name=ASAP-0000108-001): 0.182% | perc_inhibition_mean (SARS-CoV-2 nsp3-mac1 [2]; concentration 50.0 uM): 0.182%

Cc1nn(-c2ccccc2)c(C)c1[C@H]1COCCN1c1ncnc2[nH]ccc12 [ASAP-0000468]
inhibition at 49.75 µM (SARS-CoV-2 nsp3-mac1 [1]; [15]): -0.042% | inhibition at 99.5 µM (SARS-CoV-2 nsp3-mac1 [1]; [15]): -4.22% | perc_inhibition_mean (SARS-CoV-2 nsp3-mac1 [2]; concentration 49.75 uM): -0.042% | perc_inhibition_mean (SARS-CoV-2 nsp3-mac1 [2]; concentration 99.5 uM): -4.216%

Source: paper doi:10.1101/2024.08.19.608619, “Discovery of potent SARS-CoV-2 nsp3 macrodomain inhibitors uncovers lack of translation to cellular antiviral response” (bioRxiv, 2024)
